Experimental data published in patent US9382216B2, “Substituted morpholines as modulators for the calcium sensing receptor” (LUPIN LIMITED, priority 2011, dated 2016).
Counter-ions that a name gives are not always drawn.

Target: T1, hCaSR (Calcium sensing receptor) in stably transfected HEK293 cells (Homo sapiens, UniProt P41180)
T1 construct: expressed in transfected cells; host or cells: HEK293 (stably transfected)
T1 sequence (P41180 20-1078): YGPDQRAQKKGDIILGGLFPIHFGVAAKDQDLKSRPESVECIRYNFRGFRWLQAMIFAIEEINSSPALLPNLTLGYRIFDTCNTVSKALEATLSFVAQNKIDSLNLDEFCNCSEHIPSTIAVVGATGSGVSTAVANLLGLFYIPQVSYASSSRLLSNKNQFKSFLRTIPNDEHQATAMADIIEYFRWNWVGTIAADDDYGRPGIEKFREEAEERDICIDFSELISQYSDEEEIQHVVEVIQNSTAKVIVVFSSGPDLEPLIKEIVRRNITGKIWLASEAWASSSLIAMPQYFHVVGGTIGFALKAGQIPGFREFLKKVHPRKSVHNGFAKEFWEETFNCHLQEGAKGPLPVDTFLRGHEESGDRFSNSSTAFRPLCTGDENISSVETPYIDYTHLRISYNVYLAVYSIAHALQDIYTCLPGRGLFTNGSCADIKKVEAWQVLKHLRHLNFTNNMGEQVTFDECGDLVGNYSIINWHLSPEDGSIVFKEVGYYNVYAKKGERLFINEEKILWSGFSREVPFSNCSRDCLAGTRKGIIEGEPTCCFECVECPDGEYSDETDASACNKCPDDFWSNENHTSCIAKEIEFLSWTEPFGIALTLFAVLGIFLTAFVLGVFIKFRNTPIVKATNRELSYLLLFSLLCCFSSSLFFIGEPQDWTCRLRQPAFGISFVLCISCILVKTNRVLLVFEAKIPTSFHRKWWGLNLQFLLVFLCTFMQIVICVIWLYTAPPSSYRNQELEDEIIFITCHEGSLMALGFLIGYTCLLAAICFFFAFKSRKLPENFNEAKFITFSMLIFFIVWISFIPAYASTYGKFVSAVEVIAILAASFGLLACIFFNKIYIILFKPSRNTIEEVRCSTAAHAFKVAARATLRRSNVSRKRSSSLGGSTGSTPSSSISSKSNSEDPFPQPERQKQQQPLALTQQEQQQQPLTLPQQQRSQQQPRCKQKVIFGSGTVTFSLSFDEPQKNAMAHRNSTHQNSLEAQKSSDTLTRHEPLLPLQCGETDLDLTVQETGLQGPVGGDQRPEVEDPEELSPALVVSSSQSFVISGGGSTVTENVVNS
Experiment: In-vitro assay of calcimimetics through modulation of calcium sensing receptor (CaSR): increase in intracellular calcium, FLIPR
Format: cell-based
Settings: HEK293 cells expressing hCaSR; intracellular calcium (Fluo4NW, FLIPR); 0.3 mM CaCl2; 8-point assay; read-out: EC50 in range
Experimental: In-Vitro Assay Method of Calcimemtics Through Modulation of Calcium Sensing Receptor (CaSR):
The ability of the compounds to modulate Calcium sensing receptor is determined by measuring an increase in intracellular calcium [Ca^2+i]. Stably transfected HEK293 cells expressing hCaSR_pTriEx-3 hygro vector are developed. Cells are grown overnight on a 96-well plate to 80% confluency in Ham's F12 containing 20% FBS at 37° C., 5% CO2 Subsequently, cells are washed extensively with 20 mM HEPES buffer containing 126 mM NaCl2, 1 mM MgCl2 and 4 mM KCl2 to remove serum components that might interfere with the assay. Cells are loaded with calcium sensing Fluo4NW dye in HEPES base buffer containing 0.1% BSA and 1 mg/ml glucose for 30 minutes to measure changes in intracellular calcium. The activities of the compounds are measured in FLIPR using 0.3 mM CaCl2 in 20 mM HEPES base buffer. The effectiveness of the compound to modulate receptor activity is determined by calculating the EC50 responses for that compound in an 8-point assay and plotted using GraphPad Prism 5.
The compounds prepared were tested using the above assay procedure and the results obtained are given below.

Row | Compound | EC50 [nM]
1 | C[C@@H](NCC1CN(c2ccc(F)c(F)c2)C(=O)CO1)c1cccc2ccccc12 (single isomer, unassigned) [62b, hydrochloride] | 20 to 50
2 | C[C@@H](NCCC1CN(c2ccc(C(F)(F)F)cc2)CCO1)c1cccc2ccccc12 (stereo partly drawn) [Example 105, (1R)-1-(Naphthalen-1-yl)-N-(2-(4-(4-(trifluoromethyl)phenyl)morpholin-2-yl)ethyl)ethanamine] | 20 to 50
3 | C[C@@H](NCC1CN(c2ccc(CC(=O)O)cc2)C(=O)CO1)c1cccc2ccccc12 (stereo partly drawn) [compound 60, 2-(4-(2-((((R)-1-(Naphthalen-1-yl)ethyl)amino)methyl)-5-oxomorpholino)phenyl)acetic acid hydrochloride] | 50 to 200
4 | COc1cccc(N2CCOC(CN[C@H](C)c3cccc4ccccc34)C2)c1 (single isomer, unassigned) [25b] | 20 to 50
5 | COc1cccc([C@@H](C)NCC2COCCN2c2ccccc2)c1 (single isomer, unassigned) [11a] | < 20
6 | C[C@@H](NCC1CN(c2ccc3c(c2)OC(F)(F)O3)C(=O)CO1)c1cccc2ccccc12 (stereo partly drawn) [compound 59, 4-(2,2-Difluorobenzo[d][1,3]dioxol-5-yl)-6-((((R)-1-(naphthalen-1-yl)ethyl)amino)methyl)morpholin-3-one hydrochloride] | 20 to 50
7 | C[C@@H](NCC1CN(c2ccc(F)cc2)CCO1)c1cccc2ccccc12 (stereo partly drawn) [compound 28] | < 20
8 | C[C@@H](NCC1CN(c2ccccc2)CCO1)c1cccc2ccccc12 (single isomer, unassigned) [26a] | < 20
9 | C[C@@H](NCC1CN(Cc2ccc(F)cc2C(F)(F)F)C(=O)CO1)c1cccc2ccccc12 (stereo partly drawn) [Example 82, 4-(4-Fluoro-2-(trifluoromethyl)benzyl)-6-((((R)-1-(naphthalen-1-yl)ethyl)amino)methyl)morpholin-3-one hydrochloride] | < 20
10 | C[C@@H](NCC1CN(c2cccc(F)c2)CCO1)c1cccc2ccccc12 (stereo partly drawn) [Example-3, (1R)-N-((4-(3-Fluorophenyl)morpholin-2-yl)methyl)-1-(naphthalen-1-yl)ethanamine hydrochloride] | 20 to 50
11 | COc1cc([C@@H](C)NCC2CN(Cc3cc(F)ccc3F)C(=O)CO2)ccc1F (single isomer, unassigned) [Example 160a, hydrochloride] | 20 to 50
12 | Cc1ccc(N2CCOC(CN[C@H](C)c3cccc4ccccc34)C2)cc1 (single isomer, unassigned) [27b] | < 20
13 | C[C@@H](NCC1CN(CC2CC2)C(=O)CO1)c1cccc2ccccc12 (single isomer, unassigned) [Example 97a, hydrochloride] | < 20
14 | COc1cccc([C@@H](C)NCC2CN(c3ccccc3)CCO2)c1 (stereo partly drawn) [compound 32] | 50 to 200
15 | C[C@@H](NCCC1CN(c2ccc(C(F)(F)F)c(C(=O)O)c2)CCO1)c1cccc2ccccc12 (single isomer, unassigned) [Example 110a, hydrochloride] | 50 to 200
16 | COc1cccc([C@@H](C)NCC2COCCN2c2cccc(F)c2)c1 (stereo partly drawn) [compound 15] | 20 to 50
17 | COc1cc([C@@H](C)NCC2CN(Cc3ccc(F)cc3)C(=O)CO2)ccc1F (single isomer, unassigned) [Example 101a, hydrochloride] | 20 to 50
18 | COc1cccc([C@@H](C)NCC2COCCN2c2cccc(C(F)(F)F)c2)c1 (single isomer, unassigned) [4a] | 20 to 50
19 | Cc1ccc(N2CCOCC2CN[C@H](C)c2cccc3ccccc23)cc1 (single isomer, unassigned) [7b] | 20 to 50
20 | C[C@@H](NCCC1CN(c2ccc(C(=O)O)cc2)CCO1)c1cccc2ccccc12 (single isomer, unassigned) [Example 112a, hydrochloride] | 50 to 200
21 | Cc1cc(N2CCOC(CCN[C@H](C)c3cccc4ccccc34)C2)ccc1C(=O)O (single isomer, unassigned) [Example 104a] | 50 to 200
